According to publication PMC9913425, “Pentacyclic Triterpenoids-Based Ionic Compounds: Synthesis, Study of Structure–Antitumor Activity Relationship, Effects on Mitochondria and Activation of Signaling Pathways of Proliferation, Genome Reparation and Early Apoptosis” (Cancers, 2023):
Where a name gives a salt, the structure may show the parent alone.

Legend:
U937 = test: In vitro cytotoxicity, IC50 by flow cytometry (Guava ViaCount); format: cell-based
Description: (§1) Human cancer cell line HeLa, HL60, A2780 was obtained from the HPA Culture Collections (Salisbury, UK). Cells (Jurkat, K562, U937, Hek293, Fibroblasts) were purchased from Russian Cell Culture Collection (Institute of Cytology of the Russian Academy of Sciences, […], Russia) and cultured according to standard protocols and sterile technique. […] Cells were maintained in RPMI 1640 (Jurkat, K562, U937, HL60) (Gibco, Billings, MT, USA) supplemented with […], 10% FBS (Sigma) and 100 units/mL penicillin–streptomycin (Sigma). All types of cells were grown in an atmosphere of 5% CO2 at 37 °C. The cells were subcultured at 2–3 days intervals. Cells were then seeded in 24-well plates at 5 × 10^4 cells per well and incubated overnight. Jurkat, K562, U937, HL60 cells were subcultured at 2-day intervals with a seeding density of 1 × 10^5 cells per 24-well plates in RPMI with 10% FBS.
(§2) The antitumor activity of the synthesized ionic compounds was initially assessed in vitro on Jurkat, K562, U937, HL60, HEK293, A2780 cell lines, including the determination of IC50 by flow cytometry involving Guava ViaCount (Millipore) reagent kits.

Jurkat = test: as above; format: cell-based; conditions: Jurkat cells
Description: as §1, §2

HEK293 = test: as above; format: cell-based; conditions: conditionally normal
Description: as §1, §2

K562 = test: as above; format: cell-based
Description: as §1, §2

A2780 = test: as above; format: cell-based, human
Description: as §1, §2

HL60 = test: as above; format: cell-based, human
Description: as §1, §2

[1] = system: mitochondria of Jurkat tumor cells; test: Mitochondrial damage (MitoSense Red staining); format: cell-based; conditions: compound at IC50 concentration, incubation 2 h
Jurkat cells = test: Apoptosis/necrosis induction (Annexin V Alexa Fluor488, 7AAD staining); format: cell-based; conditions: compound at IC50 concentration, incubation 2 h
Text: Multiparametric evaluation of marker molecules, along with the detection of damage to the mitochondrial membrane, makes it possible to clearly determine the type of cell death. The method of cell staining with three different dyes (Annexin V Alexa Fluor488, 7AAD and MitoSense Red) provides simultaneous specification of various aspects of the state of the cell membrane, the state of DNA and the viability of mitochondria; together, it is a reliable sign of intrinsic and mitochondrial apoptosis pathway. Normal cells with intact mitochondrial membranes have high MitoSense Red fluorescence, while cells with decoupled oxidation and phosphorylation have much lower fluorescence. […]
Figure 1 The ratio of the level of mito-damage and the level of apoptosis in Jurkat cells of ionic compounds based on ursolic, oleanolic and betulinic acids.

Chk2 = test: Luminex xMAP DNA Damage/Genotoxicity panel, phosphorylated Chk2; format: cell-based; conditions: Jurkat cells; 12a 0.006 µM, 13d 0.004 µM per 100,000 cells; 6 and 12 h
Text: [Worded in the source for another target; used here, by the source, with some conditions changed.] (§3) The determination of proteins in a cell by Luminex xMAP technology is characterized by the presence of multiplex multiparametric analysis with the simultaneous use of a multiplex of antibodies with a fluorescent label and magnetic particles, thereby resulting in an increase in the sensitivity of the technique and expansion of the dynamic range, as well as an increase in detection accuracy. Luminex XMAP technology provides a simultaneous analysis of a sufficient number of different proteins in various types of biological fluids (plasma, serum, cerebrospinal fluid, follicular fluid, tissue lysate, etc.) and in cell supernatants. Consequently, multiplexing saves time/costs and ensures the same conditions for the measurements, which is essential for significance and statistical processing.
(§4) Magnetic microspheres (stained inside with two fluorescent dyes) in combination with monoclonal antibodies against the analyzed analytes (the main intracellular kinases in this case) are incubated with the samples and standards; then, the samples/standards are incubated with biotinylated monoclonal antibodies against the analyzed analytes and, finally, with a solution of streptavidin–phycoerythrin. The Luminex technology identifies the different proteins present in each well and converts the mean fluorescence intensity (MFI) of each measured cytokine to pg/mL using software and standard curves. This approach is successfully applied in fundamental and clinical research. In this work, we analyzed various protein analytes that make up the phosphorylated and non-phosphorylated fractions of the main kinases in the signaling pathways: CREB, JNK, NFkB, p38, ERK1/2, Akt, p70S6K, STAT3, STAT5 proteins in six samples of lysates of Jurkat tumor cells by Luminex technology (MILLIPLEX® MAP 9-Plex Multi-Pathway 9-plex Magnetic Bead Kit).

Chk1 = test: Luminex xMAP DNA Damage/Genotoxicity panel, phosphorylated Chk1; format: cell-based; conditions: Jurkat cells; 12a 0.006 µM, 13d 0.004 µM per 100,000 cells; 6 and 12 h
Text: [Worded in the source for another target; used here, by the source, with some conditions changed.] as §3, §4

[2] = Homo sapiens, U-937, U937 cells
[3] = Homo sapiens, HEK293, HEK293 cells
[4] = Homo sapiens, A2780, A2780 cells
[5] = Homo sapiens, HL-60, HL60 cells

SMILES	melting point [°C]	IC50 (U937; [2]) [nM]	IC50 (Jurkat; Homo sapiens, Jurkat) [nM]	IC50 (HEK293; [3]) [nM]	IC50 (K562; Homo sapiens, K562, K562 cells) [nM]	IC50 (A2780; [4]) [nM]	IC50 (HL60; [5]) [nM]	Mito-Damage (%) [1] [%]	Apoptosis (%) Early (Jurkat cells) [%]	Apoptosis (%) Late (Jurkat cells) [%]	Apoptosis (%) Necrosis (Jurkat cells) [%]	percentage of cells in the apoptotic state (Jurkat cells) [%]	IC50 (U937; U937 cells) [nM]	IC50 (Jurkat) [nM]	IC50 (HEK293; HEK293 cells) [nM]	IC50 (K562; K562 cells) [nM]	IC50 (A2780; A2780 cells) [nM]	IC50 (HL60; HL60 cells) [nM]	content of phosphorylated checkpoint kinase Chk2 (Chk2)	content of phosphorylated checkpoint kinase Chk1 (Chk1)
C[n+]1ccn(CCCCOC(=O)[C@]23CCC(C)(C)CC2C2=CCC4[C@@]5(C)CC[C@H](O)C(C)(C)C5CC[C@@]4(C)[C@]2(C)CC3)c1 (stereo partly drawn) (as salt: bromide) [9b, 1-(4-{[(3β)-3-Hydroxyolean-12-en-28-oyl]oxy}butyl)-3-methylimidazolium bromide]	148 to 150																			
CC(=O)O[C@H]1CC[C@@]2(C)C(CC[C@]3(C)C2CC=C2C4CC(C)(C)CC[C@]4(C(=O)OCCCCCCn4cc[n+](C)c4)CC[C@]23C)C1(C)C (stereo partly drawn) (as salt: bromide) [9d, 1-(6-{[(3β)-3-Acetyloxyolean-12-en-28-oyl]oxy}hexyl)-3-methylimidazolium bromide]	151 to 153																			
CC1(C)CC[C@]2(C(=O)OCCCCCC[N+]3(C)CCCCC3)CC[C@]3(C)C(=CCC4[C@@]5(C)CC[C@H](O)C(C)(C)C5CC[C@]43C)C2C1 (stereo partly drawn) [12b, 1-(6-{[(3β)-3-Hydroxyolean-12-en-28-oyl]oxy}hexyl)-1-methylpiperidinium bromide]		19 ± 1	9 ± 1	76 ± 7	21 ± 1	34 ± 3	24 ± 2	23.49	3.21	18.13	1.9									
CC1(C)CC[C@]2(C(=O)OCCCCCC[N+]3(C)CCCC3)CC[C@]3(C)C(=CCC4[C@@]5(C)CC[C@H](O)C(C)(C)C5CC[C@]43C)C2C1 (stereo partly drawn) [12c, 1-(6-{[(3β)-3-Hydroxyolean-12-en-28-oyl]oxy}hexyl)-1-methylpyrrolidinium bromide]		21 ± 1	11 ± 1	81 ± 8	24 ± 1	39 ± 4	27 ± 2	74.26	0.7	33.66	0.99	35								
CC1(C)CC[C@]2(C(=O)OCCCCCC[N+]3(C)CCOCC3)CC[C@]3(C)C(=CCC4[C@@]5(C)CC[C@H](O)C(C)(C)C5CC[C@]43C)C2C1 (stereo partly drawn) [12d, 4-(6-{[(3β)-3-Hydroxyolean-12-en-28-oyl]oxy}hexyl)-4-methylmorpholinium bromide]		59 ± 3	22 ± 2	86 ± 8	69 ± 3	41 ± 4	17 ± 1	62.11	0.0	36.14	22.63									
CC[N+](CC)(CC)CCCCCCOC(=O)[C@]12CCC(C)(C)CC1C1=CCC3[C@@]4(C)CC[C@H](O)C(C)(C)C4CC[C@@]3(C)[C@]1(C)CC2 (stereo partly drawn) [12e, N,N,N-Triethyl-N-(6-{[(3β)-3-hydroxyolean-12-en-28-oyl]oxy}hexyl)-aminium bromide]		10 ± 1	7 ± 1	34 ± 3	13 ± 1	16 ± 2	3 ± 1	97.3	0.76	76.0	7.19									
CC1(C)CC[C@]2(C(=O)OCCCCCC[N+](C)(C)CCO)CC[C@]3(C)C(=CCC4[C@@]5(C)CC[C@H](O)C(C)(C)C5CC[C@]43C)C2C1 (stereo partly drawn) [12f, N-(2-Hydroxyethyl)-N-(6-{[(3β)-3-hydroxyolean-12-en-28-oyl]oxy}hexyl)-N,N-dimethylaminium bromide]		42 ± 2	17 ± 1	26 ± 2	49 ± 2	15 ± 1	11 ± 1	86.98	0.0	30.87	54.23	85.10								
Cn1cc[n+](CCCCCCOC(=O)C23CCC(C)(C)CC2C2=CCC4C5(C)CCC(O)C(C)(C)C5CCC4(C)C2(C)CC3)c1.[F][Sb-]([F])([F])([F])([F])[F] (stereo not drawn) [13b, 1-(6-{[(3β)-3-Hydroxyolean-12-en-28-oyl]oxy}hexyl)-3-methylimidazolium Hexafluoroantimonate]								35.72	2.35	17.49	4.68		10 ± 1	9 ± 1	39 ± 3	12 ± 1	21 ± 2	3 ± 1		
Cn1cc[n+](CCCCCCOC(=O)[C@]23CCC(C)(C)C[C@H]2C2=CC[C@@H]4[C@@]5(C)CC[C@H](O)C(C)(C)[C@@H]5CC[C@@]4(C)[C@]2(C)CC3)c1.F[P-](F)(F)(F)(F)F [13c, 1-(6-{[(3β)-3-Hydroxyolean-12-en-28-oyl]oxy}hexyl)-3-methylimidazolium Hexafluorophosphate]								8.32	3.62	5.20	1.78		5 ± 1	8 ± 1	32 ± 3	7 ± 1	14 ± 1	3 ± 1		
C[n+]1ccn(CCCCCCOC(=O)[C@]23CCC(C)(C)CC2C2=CCC4[C@@]5(C)CC[C@H](O)C(C)(C)C5CC[C@@]4(C)[C@]2(C)CC3)c1.O=S(=O)([O-])c1ccccc1 (stereo partly drawn) [13e, 1-(6-{[(3β)-3-Hydroxyolean-12-en-28-oyl]oxy}hexyl)-3-methylimidazolium Benzenesulfonate]								7.71	6.26	3.12	1.52		14 ± 1	11 ± 1	46 ± 4	17 ± 1	24 ± 2	4 ± 1		
C=C(C)[C@@H]1CC[C@]2(C(=O)[O-])CC[C@]3(C)[C@H](CC[C@@H]4[C@@]5(C)CC[C@H](O)C(C)(C)[C@@H]5CC[C@]43C)[C@@H]12.CCn1cc[n+](C)c1 [17a, 1-Ethyl-3-methylimidazolium (3β)-3-hydroxyolup-20(29)-en28-oylate]								8.84	2.91	1.38	3.30		34 ± 2	18 ± 1	182 ± 17	41 ± 2	81 ± 8	17 ± 2		
N#CC(C#N)=NNc1cccc(Cl)c1 [CCCP]																			significantly decreases	significantly decreases
CC(=O)O[C@H]1CC[C@@]2(C)C(CC[C@]3(C)C2CC=C2C4CC(C)(C)CC[C@]4(C(=O)OCCCCCCOC(=O)c4nccn4C)CC[C@]23C)C1(C)C (stereo partly drawn) [compound 3, 6-{[(1-Methyl-1H-imidazol-2-yl)carbonyl]oxy}hexyl (3β)-3-(acetyloxy)olean-12-en-28-oate]	134 to 136	> 4000	> 4000	> 4000	> 4000	> 4000	> 4000													
